Assay results from patent US20140005271A1, “PHARMACEUTICAL COMPOSITION FOR PREVENTING OR TREATING INFLAMMATORY DISEASES OR INFECTIOUS DISEASES, CONTAINING m-3M3FBS, WHICH IS ACTIVATOR OF PHOSPHOLIPASE C, AS ACTIVE INGREDIENT” (priority 2011, published 2014).

Legend:
CLP mouse models = experiment: Survival/mortality of CLP (cecal ligation and puncture) sepsis mice; type: in vivo; settings: for effect on the m-3M3FBS-induced survival rate: treated within the period of injecting m-3M3FBS, 1.5 mg/kg, FIG. 1C
Experimental: (§1) Male WT ICR mice were used as test models. All tests involving animals were performed according to the guidelines, and received the approval of Institutional Review Committee for Animal Care and Use from Dong-a University. For cecal ligation and puncture (CLP), the mice were anesthetized by intraperitoneal injection of pentothal sodium (50 mg/kg), and the cecum was exposed through midline incision of the abdomen. The cecum was ligated at a terminal end of the ileocecal valve, and the surface was perforated twice, or once to measure cytokine production using a 22-gauge needle, and the abdomen was closed. The control (sham) CLP mice underwent the same process as described above, but the cecum was not ligated or punctured.

[1] = test system: mouse neutrophils with opsonized E. coli; experiment: Microbicidal action of neutrophils on ingested opsonized E. coli; type: cell-based
Experimental: Neutrophils were incubated for 1 hour at a 13-mm plastic cover slip on a 60-mm plastic petri dish (1×10^6 neutrophils/cover slip) at 37° C. Unattached neutrophils were removed by PBS washing, and the attached neutrophils were incubated with 10^6 of opsonized E. coli for 20 minutes. Microbes ingested by neutrophils were incubated for 30 minutes at various concentrations of m-3M3FBS or vehicles, and changes of the microbes before and after incubation were examined. A percentage of dead microbes was calculated by 100×(1−the number of CFU after m-3M3FBS stimulation/the number of CFU before m-3M3FBS stimulation).

mouse neutrophils [2] = experiment: Production of H2O2 in neutrophils; type: cell-based
Experimental: Neutrophils of mice were isolated from peripheral blood using Histopaque-1077 solvent (Sigma), and neutrophils isolated from a normal mouse were stimulated by treating various concentrations of m-3M3FBS for 10 minutes in the presence of cytochalasin B (5 μm). […] H2O2 obtained from a supernatant was analyzed using H2O2 Molecular Probes.

lung of the CLP mouse = experiment: Inflammation of the lung in CLP mice (hematoxylin and eosin staining, W/D weight ratio); type: in vivo; settings: 1.5 mg/kg
Experimental: The degree of pulmonary edema was identified by measuring a wet-to-dry (W/D) ratio of the lung. The wet weight of the harvested cells was measured, and the cells were placed in an oven at 60° C. for 48 hours, and the dry weight of the cells was measured, thereby obtaining the W/D ratio.
2 hours after the mice underwent CLP, PBS or m-3M3FBS was administered at a concentration of 1.5 mg/kg. 24 hours after the surgery, the mice were euthanized, and the lung was fixed, cut, and stained with hematoxylin and eosin to perform morphological analysis.

[3] = test system: bacteria in the peritoneal fluid; experiment: In vivo microbicidal action: bacterial colonies (CFU) in peritoneal lavage fluid after CLP; design: species or system mouse; settings: 1.5 mg/kg; 24 hours after CLP; FIG. 3A
Experimental: 24 hours after the CLP, peritoneal lavage fluid was harvested, and was incubated overnight in a blood-agar base plate (Trypticase Soy Agar Deeps, Becton Dickinson) at 37° C. CFUs were estimated by counting bacteria colonies formed in the blood-agar base plate (Trypticase Soy Agar Deeps, Becton Dickinson).

[4] = test system: thymocytes and splenocytes; experiment: CLP-induced apoptosis of thymocytes and splenocytes (H&E staining, counting of living cells); type: in vivo, mouse; settings: 1.5 mg/kg; 24 hours; FIGS. 4A and B
Experimental: as §1

splenocytes = experiment: TUNEL assay of CLP-induced apoptosis; type: in vivo, mouse; settings: 1.5 mg/kg; FIG. 4C
Experimental: The TUNEL assay was performed on tissue fragments embedded in paraffin, and the fragments were subjected to permeation of Triton X-100 at 4° C. for 2 minutes, and immersed in a TdT enzyme and a digoxigenin-dUTP reaction buffer (TUNEL) reagent for 60 minutes at 37° C. A percentage of apoptotic cells (TUNEL-positive cells) was determined by counting 500 splenocytes, which were observed using an optical microscope.

caspase-3 = experiment: Immunostaining of fragmented caspase-3 in splenocytes of CLP mice; design: species or system mouse; settings: 1.5 mg/kg in vivo; FIG. 4D
Experimental: Immunostaining was performed on the paraffin-embedded tissue fragments. The fragments were incubated with primary antibodies (Cell Signal transduction) in response to fragmented capase-3, and stained with fluorescent pigment-fused secondary antibodies.

[5] = test system: cytokines in the peritoneal fluid; experiment: CLP-induced cytokines in peritoneal fluid by ELISA; type: in vivo, mouse; settings: 1.5 mg/kg, 4 to 72 hours after CLP
Experimental: To detect production of CLP-inducing cytokines in peritoneal lavage fluid, m-3M3FBS was treated 2, 14, 26, or 38 hours after CLP. The peritoneal lavage fluid was harvested at various points of time from 4 to 72 hours after the CLP, and expression of cytokines in the peritoneal fluid was detected by ELISA (BD Biosciences Pharmingen).

mouse neutrophils [6] = experiment: LPS-induced proinflammatory cytokine secretion in neutrophils by ELISA; type: cell-based; settings: LPS 100 ng/ml, m-3M3FBS 10 μM, versus LPS alone
Experimental: Mouse neutrophils (3×10^6 cells/0.3 ml) were incubated in a 24-well plate containing 10% FBS-contained RPMI 1640 medium, and placed in 5% CO2 incubator at 37° C. Then, the neutrophils were incubated with LPS (100 ng/ml) for 6 hours in the presence or absence of m-3M3FBS (10 μM). The LPS (100 ng/ml) was treated to the cells after 30 minutes, the cell-free supernatant was harvested by centrifugation, and the production of IL-1 or TNF-α was detected by ELISA (BD Biosciences Pharmingen) according to the manufacturer's instructions.

splenocytes of mice = experiment: Direct in vitro production of IFN-γ and IL-12 by ELISA; type: cell-based, mouse; settings: various concentrations, 3 hours

COc1ccc2c(c1)CC[C@@H]1[C@@H]2CC[C@]2(C)[C@@H](NCCCCCCN3C(=O)C=CC3=O)CC[C@@H]12 [U-73122, reference compound]
effect on the m-3M3FBS-induced survival rate (CLP mouse models): completely prevented the increase in the m-3M3FBS-induced survival rate | effect on m-3M3FBS-induced microbicidal action ([1]; neutrophils preincubated with the inhibitor (10 μM), then m-3M3FBS added, FIG. 3C): completely prevented | effect on m-3M3FBS-induced production of H2O2 (mouse neutrophils [2]; neutrophils preincubated with the inhibitor (10 μm), FIG. 3E): significantly decreased

COc1ccc2c(c1)CC[C@@H]1[C@@H]2CC[C@]2(C)[C@@H](NCCCCCCN3C(=O)CCC3=O)CC[C@@H]12 [U-73343, reference compound]
effect on the m-3M3FBS-induced survival rate (CLP mouse models): did not

Cc1cc(C)c(S(=O)(=O)Nc2cccc(C(F)(F)F)c2)c(C)c1 [m-3M3FBS]
survival rate by injection frequency (CLP mouse models; 1.5 mg/kg 2 hours after CLP, further three or four times at 12 hour intervals, FIG. 1B): significantly improved | survival rate of the mice compared to vehicle-injected control (CLP mouse models; 0.9 or 1.5 mg/kg injected, FIG. 1A): significantly increased | mortality of the mice after CLP (CLP mouse models; various concentrations injected after CLP, FIG. 1A): significant decrease in the mortality | W/D weight ratio of the lung (lung of the CLP mouse; 24 hours after CLP, FIG. 2B): significantly decreased | lung inflammation symptoms (congestion, extensive thrombotic lesions) (lung of the CLP mouse; hematoxylin and eosin staining 24 hours after surgery, FIG. 2A): significantly decreased | decrease in number of colonies of bacteria in the abdominal cavity [3]: 55% | microbicidal action of the neutrophils ([1]; 1 to 50 μm m-3M3FBS, FIG. 3B): significantly increased in a direction proportional to the concentration | production of H2O2 in the neutrophils (mouse neutrophils [2]; 1 to 50 μm m-3M3FBS, FIG. 3D): increased the production of H2O2 in the neutrophils in a direction proportional to the concentration | CLP-induced apoptosis of the thymocytes and splenocytes [4]: significantly inhibited | CLP-induced apoptosis by DNA fragmentation assay (TUNEL) (splenocytes): significantly inhibited | activation of CLP-induced caspase-3 (caspase-3): significantly inhibited | level of IL-1β in peritoneal fluid ([5]; FIG. 5A): significantly decreased | level of TNF-α in peritoneal fluid ([5]; FIG. 5B): significantly decreased | level of IL-12p70 in peritoneal fluid ([5]; FIG. 5C): significantly increased | level of IFN-γ in peritoneal fluid ([5]; FIG. 5D): significantly increased | level of IL-1β after LPS treatment (mouse neutrophils [6]; FIG. 6A): decreased | level of TNF-α after LPS treatment (mouse neutrophils [6]; FIG. 6B): decreased | level of IL-6 after LPS treatment (mouse neutrophils [6]; FIG. 6C): decreased | production of IFN-γ (splenocytes of mice; FIG. 6D): increased | production of IL-12 (splenocytes of mice; FIG. 6E): increased
